Data: the supplement of paper PMC13380429

How the values were obtained:
Settings in all cases: 72 h
HepG2 [1] = experiment: drug sensitivity score (DSS) for viability; higher = more toxic; extreme values may be limits of the assay
Vero E6 [2] = experiment: as above
HepG2 [3] = experiment: cell viability relative to DMSO; higher = less toxic
Vero E6 [4] = experiment: as above
HepG2 [5] = experiment: relative viability EC50 (midpoint between 100% and the lowest measured viability); higher = less toxic
Vero E6 [6] = experiment: as above
U2OS [7] = experiment: drug sensitivity score (DSS) for viability; higher = more toxic; extreme values may be limits of the assay
Caco-2 [8] = experiment: as above
Calu-3 [9] = experiment: as above
Caco-2 [10] = experiment: cell viability relative to DMSO; higher = less toxic
U2OS [11] = experiment: as above
Calu-3 [12] = experiment: as above
U2OS [13] = experiment: relative viability EC50 (midpoint between 100% and the lowest measured viability); higher = less toxic
Calu-3 [14] = experiment: as above

| Structure (SMILES) | drug sensitivity score (HepG2 [1]) | drug sensitivity score (Vero E6 [2]) | cell viability (HepG2 [3]; 1 nM) [%] | cell viability (HepG2 [3]; 10 nM) [%] | cell viability (HepG2 [3]; 100 nM) [%] | cell viability (HepG2 [3]; 1000 nM) [%] | cell viability (HepG2 [3]; 10000 nM) [%] | cell viability (Vero E6 [4]; 1 nM) [%] | cell viability (Vero E6 [4]; 10 nM) [%] | cell viability (Vero E6 [4]; 100 nM) [%] | cell viability (Vero E6 [4]; 1000 nM) [%] | cell viability (Vero E6 [4]; 10000 nM) [%] | relative viability EC50 (HepG2 [5]) [µM] | relative viability EC50 (Vero E6 [6]) [µM] | drug sensitivity score (U2OS [7]) | drug sensitivity score (Caco-2 [8]) | drug sensitivity score (Calu-3 [9]) | cell viability (Caco-2 [10]; 1 nM) [%] | cell viability (Caco-2 [10]; 10 nM) [%] | cell viability (Caco-2 [10]; 100 nM) [%] | cell viability (Caco-2 [10]; 1000 nM) [%] | cell viability (Caco-2 [10]; 10000 nM) [%] | cell viability (U2OS [11]; 1 nM) [%] | cell viability (U2OS [11]; 10 nM) [%] | cell viability (U2OS [11]; 100 nM) [%] | cell viability (U2OS [11]; 1000 nM) [%] | cell viability (U2OS [11]; 10000 nM) [%] | cell viability (Calu-3 [12]; 1 nM) [%] | cell viability (Calu-3 [12]; 10 nM) [%] | cell viability (Calu-3 [12]; 100 nM) [%] | cell viability (Calu-3 [12]; 1000 nM) [%] | cell viability (Calu-3 [12]; 10000 nM) [%] | relative viability EC50 (U2OS [13]) [µM] | relative viability EC50 (Calu-3 [14]) [µM] |
| --- | --- | --- | --- | --- | --- | --- | --- | --- | --- | --- | --- | --- | --- | --- | --- | --- | --- | --- | --- | --- | --- | --- | --- | --- | --- | --- | --- | --- | --- | --- | --- | --- | --- | --- |
| COc1cccc2c1c(O)c(C(=O)N(C)c1ccc(C(F)(F)F)cc1)c(=O)n2C [tasquinimod] | 0 | 0 | 114 | 104 | 105 | 98.9 | 102 | 94.9 | 98.9 | 96.7 | 93 | 93.9 | > 10 | > 10 | – | – | – | – | – | – | – | – | – | – | – | – | – | – | – | – | – | – | – | – |
| COc1cccc(Nc2c(C(N)=O)cnc3c(C)cc(S(=O)(=O)c4cccc(C(=O)N(C)C)c4)cc23)c1 | 0 | 0 | – | – | – | – | – | – | – | – | – | – | – | – | 0 | – | – | – | – | – | – | – | – | – | – | – | – | – | – | – | – | – | – | – |
| CC(C)=CCC/C(C)=C/CNCCNC1C2CC3CC(C2)CC1C3 (centres undefined) [SQ-109] | 0.1 | 0 | 94.3 | 103 | 110 | 103 | 86.3 | 103 | 95.8 | 105 | 102 | 88.8 | > 10 | > 10 | 0 | 2.4 | 0 | 92.5 | 107 | 81.7 | 90.6 | 74.2 | 102 | 104 | 99.5 | 103 | 93.6 | 94.2 | 111 | 106 | 106 | 94 | > 10 | > 10 |
| CNC(=O)[C@H]1O[C@@H](n2cnc3c(NCc4cccc(I)c4)nc(Cl)nc32)[C@H](O)[C@@H]1O [CF102] | 0 | 0 | 100 | 102 | 108 | 106 | 99.3 | 110 | 99.5 | 104 | 98.3 | 102 | > 10 | > 10 | – | – | 0 | – | – | – | – | – | – | – | – | – | – | 99.1 | 116 | 93.2 | 102 | 98.3 | – | > 10 |
| O=C(O)CCC(=O)c1ccc(-c2ccccc2)cc1 [fenbufen] | 0 | 0 | – | – | – | – | – | – | – | – | – | – | – | – | 0 | – | 0 | – | – | – | – | – | – | – | – | – | – | – | – | – | – | – | – | – |
| CCN(CC)CC#CCOC(=O)C(O)(c1ccccc1)C1CCCCC1 (centres undefined) [oxybutynin] | 0 | 0 | – | – | – | – | – | – | – | – | – | – | – | – | 0 | – | 0 | – | – | – | – | – | – | – | – | – | – | – | – | – | – | – | – | – |
| Cc1cccc(C(=O)O)c1O [hydroxytoluic-acid] | 0 | 0 | 90.6 | 93.6 | 87.1 | 88.5 | 104 | 108 | 104 | 104 | 105 | 99 | > 10 | > 10 | 0 | – | – | – | – | – | – | – | 96.8 | 99.3 | 102 | 108 | 104 | – | – | – | – | – | > 10 | – |
| Cc1csc2c(N[C@@H](C)CN3CCN(S(=O)(=O)c4ccc(Cl)c(Cl)c4)CC3)ncnc12 [LPA2-antagonist-1] | 12.8 | 1.1 | 106 | 97.9 | 93.2 | 36.6 | 18.6 | 95.2 | 97.1 | 102 | 93.2 | 82.5 | 0.451 | > 10 | 2.5 | 3.7 | 0 | 96.3 | 107 | 95.3 | 80.9 | 64.4 | 97.6 | 101 | 97.4 | 97 | 58.7 | 90.5 | 104 | 96.9 | 103 | 93.6 | – | > 10 |
| CCCCN(Cc1ccc(C(=O)NO)cc1)C(=O)Nc1ccccc1 [nexturastat-A] | 4.7 | 2.3 | 110 | 105 | 97.7 | 90 | 43.9 | 96.2 | 94.5 | 96.7 | 99.4 | 56.6 | 1.83 | – | 5.1 | 3.8 | 4.4 | 101 | 98.8 | 109 | 92.3 | 52.3 | 98.1 | 102 | 99.3 | 90.1 | 36.6 | 89.3 | 107 | 98.9 | 88 | 51.7 | 1.95 | – |
| Cc1cc(-c2nc3cc(F)ccc3s2)ccc1NC(=O)[C@@H](N)CCCCN [phortress] | 20 | 0 | 95.6 | 107 | 86.3 | 3.3 | 1.6 | 92.3 | 95.8 | 94.4 | 97.2 | 107 | 0.208 | > 10 | 0 | 1.6 | 1.1 | 100 | 100 | 93.3 | 92.2 | 73.5 | 97.9 | 93.9 | 97.5 | 95.2 | 93.6 | 102 | 99.9 | 97.6 | 91.3 | 79.9 | > 10 | > 10 |
| CCNCCS(=O)(=O)NC[C@@]1(c2ccccc2)SC(NC(=O)C(C)(C)C)=NN1C(=O)C(C)(C)C [litronesib] | 23.3 | 13.9 | 89.4 | 72.9 | 35.9 | 34.7 | 33.6 | 97 | 107 | 82.9 | 38.8 | 41.9 | 0.0119 | 0.146 | 15.5 | 12.7 | 2.8 | 98.1 | 91 | 62.9 | 67.9 | 62.2 | 104 | 96 | 58 | 49.7 | 44.8 | 95.1 | 91.9 | 87 | 84.3 | 81.2 | 0.0488 | > 10 |
